≈ marks a conversion by molar mass, not a printed value.
Key:
physchem [1] = conditions: pH 7.4
M. tuberculosis H37Rv = assay: M. tuberculosis inhibition assay (MABA, resazurin) MIC; format: cell-based; conditions: Mycobacterium tuberculosis
[2] = system: non-replicating M. tuberculosis H37Rv; assay: Activity against non-replicating Mycobacterium tuberculosis; conditions: non-replicating conditions; for ACT In NR % inhibition: active/inactive call, experiments with inh > 50%
M. bovis BCG Pasteur = assay: microbe, parasite or virus in culture; format: cell-based, Mycobacterium bovis BCG; conditions: for IC50: Mycobacterium tuberculosis variant bovis BCG, BCG, read-out: BCG pIC50 (converted)
physchem [3] = conditions: pH 7.4, kinetic from dmso stock
HepG2 cells = conditions: HepG2, 48 h
[4] = system: M. tuberculosis H37Rv in infected THP1 cells; assay: Intracellular assay (luciferase H37Rv in THP1 cells); format: cell-based, Mycobacterium tuberculosis; conditions: for IC50: Mycobacterium tuberculosis, H37RV, THP-1, 120 h, read-out: ACT In Intracellular pX50 (converted)

Row | Compound | chromatographic logD (physchem [1]) | MIC (M. tuberculosis H37Rv) [µM] | ACT In NR pXC50 [2] | ACT In NR % inhibition [2] | IC50 (M. bovis BCG Pasteur) [nM] | solubility (physchem [3]) [µg/mL] | TOX50 HepG2 (HepG2 cells) [µM] | IC50 [4] [nM] | Mtb specific (inactive against M. bovis BCG) (M. bovis BCG Pasteur; hit in Mtb screen, not in BCG screen) | Inhibition of intracellular growth (active = pIC50 above 5) ([4]; THP1 cells, the one compound of 26 tested that was not active)
1 | COc1ccc2nccc(NC(=O)C3CCN(CCc4ccc(Cl)cc4)CC3)c2n1 [TCMDC-143649] | 5.49 | 0.2 (≈ 0.085 µg/mL) | 5,1 | ACTIVE 7 expts out of 10 with inh > 50% | 5010 | 4 (≈ 9.41 µM) | > 100 |  |  | 
2 | O=C(NCc1ccco1)N1CCN(Cc2ccc3c(c2)OCO3)CC1 [TCMDC-143650] | 3.48 | 1.25 (≈ 0.429 µg/mL) |  | INACTIVE | 1260 | 86 (≈ 250 µM) | > 100 |  |  | 
3 | CCCC/C=C/c1cc2ccncc2cc1OC1CCNCC1 [TCMDC-143651] | 3.61 | 1.6 (≈ 0.497 µg/mL) |  | INACTIVE | 2510 | 36 (≈ 116 µM) | 16 | 1260 |  | 
4 | O=C(NCc1ccco1)N1CCN(Cc2ccc3c(c2)CCO3)CC1 [TCMDC-143652] | 3.47 | 2 (≈ 0.683 µg/mL) |  | INACTIVE | 2510 | 88 (≈ 258 µM) | > 100 |  |  | 
5 | O=C(NCc1ccco1)N1CCN(Cc2ccc(Cl)s2)CC1 [TCMDC-143653] | 4.82 | 2 (≈ 0.68 µg/mL) |  | INACTIVE | 1260 | 98 (≈ 288 µM) | > 100 | 2510 |  | 
6 | Nc1ccccc1Nc1ccc(Cl)cc1 [TCMDC-143654] | 5.76 | 2 (≈ 0.437 µg/mL) | 4,5 | ACTIVE 8 expts out of 11 with inh > 50% | 100 | 59 (≈ 270 µM) | 79 | 15.8 |  | 
7 | NCC(c1cccs1)S(=O)(=O)c1ccccc1 (centres unmarked) [TCMDC-143655] | 2.5 | 2 (≈ 0.535 µg/mL) |  | INACTIVE | 5010 | 134 (≈ 501 µM) | 32 |  |  | 
8 | NS(=O)(=O)c1ccc(Nc2cnc3ccccc3n2)cc1 [TCMDC-143656] | 1.07 | 2 (≈ 0.601 µg/mL) |  | INACTIVE | 6310 | 112 (≈ 373 µM) | > 100 |  |  | 
9 | CNc1nc(SC)nnc1-c1cccc(Cl)c1Cl [TCMDC-143661] | 4.94 | 2.5 (≈ 0.753 µg/mL) |  | INACTIVE | 12600 | 85 (≈ 282 µM) | > 100 | 794 | Mtb specific | 
10 | Cc1ccc2oc(SCC(=O)Nc3nccs3)nc2n1 [TCMDC-143682] |  |  |  |  |  |  |  |  |  | all but one (TCMDC-143682) were active

Source: publication PMC4671658, “Release of 50 new, drug-like compounds and their computational target predictions for open source anti-tubercular drug discovery” (PLoS ONE, 2015)
